Among the data in ChEMBL document CHEMBL5120927, “LEGO-Lipophosphonoxins: A Novel Approach in Designing Membrane Targeting Antimicrobials” (J Med Chem, 2022) are MIC values, retold here.

The subject of one assay is Pseudomonas aeruginosa. Briefly: Antibacterial activity against Pseudomonas aeruginosa assessed as reduction in microbial growth measured after 20 cycles by microdilution assay. In kind it is functional. The conditions noted are these: Pseudomonas aeruginosa; time 24 hrs.
The subject of assay [1] is Staphylococcus aureus. Briefly: Antibacterial activity against wild type Staphylococcus aureus 4566/A assessed as reduction in microbial growth incubated for 24 hrs by microdilution assay. The class given is functional.
Assay [2] deals with Staphylococcus aureus. Briefly: Antibacterial activity against wild type methicillin resistant Staphylococcus aureus 5017/C assessed as reduction in microbial growth incubated for 24 hrs by microdilution assay. The class given is functional.
Assay [3] has as its system Staphylococcus aureus. In words: Antibacterial activity against […] Staphylococcus aureus 4463/A assessed as reduction in microbial growth incubated for 24 hrs by microdilution assay. The class given is functional. (In general: In broth dilution the organism is exposed to a series of concentrations in liquid medium.)
Assay [4] concerns Staphylococcus aureus. Briefly: microbe, parasite or virus in culture. The conditions noted are these: 4880/C, 24 h.
Description: Antibacterial activity against wild type Staphylococcus aureus 4880/C assessed as reduction in microbial growth incubated for 24 hrs by microdilution assay
In assay [5] the test system is Staphylococcus aureus. In words: Antibacterial activity against wild type Staphylococcus aureus 4738/B assessed as reduction in microbial growth incubated for 24 hrs by microdilution assay. In kind it is functional.
Assay [6] concerns Staphylococcus aureus. In words: Antibacterial activity against […] Staphylococcus aureus 4460/A assessed as reduction in microbial growth incubated for 24 hrs by microdilution assay. The class given is functional.
Assay [7] has as its system Staphylococcus aureus. In words: Antibacterial activity against wild type Staphylococcus aureus 78/CF assessed as reduction in microbial growth incubated for 24 hrs by microdilution assay. The class given is functional.
In assay [8] the test system is Staphylococcus aureus. In words: Antibacterial activity against wild type Staphylococcus aureus 4788/B assessed as reduction in microbial growth incubated for 24 hrs by microdilution assay. In kind it is functional.
Assay [9] relates to Staphylococcus aureus. Briefly: Antibacterial activity against wild type Staphylococcus aureus 4679/B assessed as reduction in microbial growth incubated for 24 hrs by microdilution assay. The class given is functional.
Assay [10] concerns Staphylococcus aureus. Briefly: Antibacterial activity against wild type Staphylococcus aureus 4515/A assessed as reduction in microbial growth incubated for 24 hrs by microdilution assay. The class given is functional.
For assay [11], the system named is Staphylococcus aureus. Briefly: Antibacterial activity against wild type methicillin resistant Staphylococcus aureus 4561/A assessed as reduction in microbial growth incubated for 24 hrs by microdilution assay. The class given is functional.
In assay [12] the test system is Staphylococcus aureus. In words: Antibacterial activity against […] Staphylococcus aureus 4461/A assessed as reduction in microbial growth incubated for 24 hrs by microdilution assay. In kind it is functional.
The subject of assay [13] is Staphylococcus aureus. In words: Antibacterial activity against wild type Staphylococcus aureus 4504/A assessed as reduction in microbial growth incubated for 24 hrs by microdilution assay. The class given is functional.
The test system of assay [14] is Staphylococcus aureus. In words: Antibacterial activity against wild type Staphylococcus aureus 5079/C assessed as reduction in microbial growth incubated for 24 hrs by microdilution assay. In kind it is functional.
Assay [15] has as its system Staphylococcus aureus. In words: Antibacterial activity against wild type Staphylococcus aureus 4482/A assessed as reduction in microbial growth incubated for 24 hrs by microdilution assay. In kind it is functional.
The test system of assay [16] is Staphylococcus aureus. In words: Antibacterial activity against wild type Staphylococcus aureus 4717/B assessed as reduction in microbial growth incubated for 24 hrs by microdilution assay. In kind it is functional.
Assay [17] concerns Staphylococcus aureus. In words: Antibacterial activity against antibiotic resistant Staphylococcus aureus 77/CF assessed as reduction in microbial growth incubated for 24 hrs by microdilution assay. In kind it is functional.
In assay [18] the test system is Staphylococcus aureus. In words: Antibacterial activity against wild type Staphylococcus aureus 4502/A assessed as reduction in microbial growth incubated for 24 hrs by microdilution assay. The class given is functional.
Assay [19] relates to Staphylococcus aureus. In words: Antibacterial activity against wild type Staphylococcus aureus 4557/A assessed as reduction in microbial growth incubated for 24 hrs by microdilution assay. In kind it is functional.
The test system of assay [20] is Staphylococcus aureus. Briefly: Antibacterial activity against antibiotic resistant Staphylococcus aureus 4740/B assessed as reduction in microbial growth incubated for 24 hrs by microdilution assay. In kind it is functional.
Assay [21] has as its system Staphylococcus aureus. Briefly: Antibacterial activity against wild type Staphylococcus aureus 4904/C assessed as reduction in microbial growth incubated for 24 hrs by microdilution assay. In kind it is functional.
For assay [22], the system named is Staphylococcus aureus. In words: Antibacterial activity against wild type Staphylococcus aureus 4883/C assessed as reduction in microbial growth incubated for 24 hrs by microdilution assay. The class given is functional.
In assay [23] the test system is Staphylococcus aureus. Briefly: microbe, parasite or virus in culture. The conditions noted are these: 4862/C, 24 h.
Description: Antibacterial activity against wild type Staphylococcus aureus 4862/C assessed as reduction in microbial growth incubated for 24 hrs by microdilution assay
In assay [24] the test system is Staphylococcus aureus. Briefly: Antibacterial activity against wild type methicillin resistant Staphylococcus aureus 4968/C assessed as reduction in microbial growth incubated for 24 hrs by microdilution assay. The class given is functional.
The subject of assay [25] is Staphylococcus aureus. Briefly: Antibacterial activity against wild type Staphylococcus aureus 4740/B assessed as reduction in microbial growth incubated for 24 hrs by microdilution assay. In kind it is functional.

In brackets after ≈: the same amount, converted by molar mass. A value given as a limit tells only on which side of the number the result lay.

On to `CC(C)(O/N=C(\C(=O)N[C@@H]1C(=O)N2C(C(=O)[O-])=C(C[n+]3ccccc3)CS[C@H]12)c1csc(N)n1)C(=O)O` [CEFTAZIDIME], for which, in the assay on Pseudomonas aeruginosa, the MIC is 128 µg/mL.
On to `CC[C@H]1OC(=O)[C@H](C)[C@@H](O[C@H]2C[C@@](C)(OC)[C@@H](O)[C@H](C)O2)[C@H](C)[C@@H](O[C@@H]2O[C@H](C)C[C@H](N(C)C)[C@H]2O)[C@](C)(O)C[C@@H](C)C(=O)[C@H](C)[C@@H](O)[C@]1(C)O` [ERYTHROMYCIN], for which the MIC in the assay with Staphylococcus aureus [1] was 0.25 µg/mL; in the assay on Staphylococcus aureus [2], above 16 µg/mL; in the assay with Staphylococcus aureus [3] it was 0.25 µg/mL; against Staphylococcus aureus [4] it was 0.25 µg/mL (≈ 0.341 µM); with Staphylococcus aureus [5], 0.25 µg/mL; in the assay on Staphylococcus aureus [6], 0.25 µg/mL. In addition, the MIC was 0.125 µg/mL with Staphylococcus aureus [7]; 0.125 µg/mL in the assay on Staphylococcus aureus [8]; 0.25 µg/mL in the assay with Staphylococcus aureus [9]; 0.25 µg/mL in the assay with Staphylococcus aureus [10]; above 4 µg/mL in the assay with Staphylococcus aureus [11]; 0.25 µg/mL in the assay on Staphylococcus aureus [12]. For the same molecule, the MIC with Staphylococcus aureus [13] was 0.25 µg/mL; with Staphylococcus aureus [14], 0.25 µg/mL; in the assay on Staphylococcus aureus [15] it was 0.25 µg/mL; with Staphylococcus aureus [16] it was 0.25 µg/mL; with Staphylococcus aureus [17], above 16 µg/mL; in the assay on Staphylococcus aureus [18], 0.125 µg/mL. Also, the MIC with Staphylococcus aureus [19] was 0.25 µg/mL; in the assay on Staphylococcus aureus [20] it was above 16 µg/mL; in the assay on Staphylococcus aureus [21] it was 0.25 µg/mL; with Staphylococcus aureus [22] it was 0.25 µg/mL; against Staphylococcus aureus [23] it was 0.25 µg/mL (≈ 0.341 µM); in the assay on Staphylococcus aureus [24] it was above 16 µg/mL.
For the molecule `CCC[C@@H]1C[C@@H](C(=O)N[C@@H]([C@H]2O[C@H](SC)[C@H](O)[C@@H](O)[C@H]2O)[C@H](C)Cl)N(C)C1` [CLINDAMYCIN], the MIC in the assay with Staphylococcus aureus [1] was 0.125 µg/mL; in the assay with Staphylococcus aureus [2], above 8 µg/mL; with Staphylococcus aureus [3], 0.125 µg/mL; in the assay with Staphylococcus aureus [4], 0.25 µg/mL (≈ 0.588 µM); in the assay with Staphylococcus aureus [5], 0.125 µg/mL; in the assay on Staphylococcus aureus [6], 0.125 µg/mL. In addition, the MIC was 0.063 µg/mL with Staphylococcus aureus [7]; 0.063 µg/mL in the assay on Staphylococcus aureus [8]; 0.125 µg/mL with Staphylococcus aureus [9]; 0.125 µg/mL with Staphylococcus aureus [25]; 0.125 µg/mL with Staphylococcus aureus [10]; above 4 µg/mL in the assay with Staphylococcus aureus [11]. In addition, the MIC with Staphylococcus aureus [12] is 0.125 µg/mL; in the assay on Staphylococcus aureus [13], 0.125 µg/mL; in the assay on Staphylococcus aureus [14], 0.063 µg/mL; in the assay on Staphylococcus aureus [15] it was 0.125 µg/mL; with Staphylococcus aureus [16] it was 0.125 µg/mL; in the assay with Staphylococcus aureus [17] it was above 8 µg/mL. Also, the MIC is 0.063 µg/mL with Staphylococcus aureus [18]; 0.125 µg/mL in the assay with Staphylococcus aureus [19]; 0.125 µg/mL in the assay with Staphylococcus aureus [21]; 0.125 µg/mL in the assay with Staphylococcus aureus [22]; 0.125 µg/mL (≈ 0.294 µM) with Staphylococcus aureus [23]; above 8 µg/mL with Staphylococcus aureus [24].
